In US3985742A, “Process for preparing 3-hydroxymethyl cephalosporins” (priority 1975, dated 1976):
Where a name gives a salt, the structure may show the parent alone. Read-outs that look alike come from different tables or passages of the source.

Legend:
Vibrio percolans MB-1272 = test: disc-plate bioassay using Vibrio percolans; conditions: Comamonas terrigena; for zone of inhibition at 100 µg/mL: MB1272, read-out: disc zone size, 100γ/ml
Escherichia coli W-MB-60 [1] = test: disc zone bioassay of derivatives; format: cell-based; conditions: WMB60, 100γ/ml, read-out: disc zone size
Description: (§1) Bioassay: the disc zone sizes in the following table are expressed in mm. for 100γ/ml of antibiotic.
(§2) Bioassay: The disc zone sizes in the following table are expressed in mm. for equal concentrations of antibiotic.

[2] = test system: Pseudomonas stutzeri MB-1231; test: disc zone bioassay of derivatives; format: cell-based; conditions: Stutzerimonas stutzeri, MB1231, 100γ/ml; read-out: disc zone size
Description: as §1
(§3) Bioassay: the disc zone sizes in the following table are expressed in mm. for equal concentrations of antibiotic.
as §2

[3] = test system: Salmonella gallinarum MB-1287; test: disc zone bioassay of derivatives; format: cell-based; conditions: Salmonella enterica, 100γ/ml, read-out: disc zone size
Description: as §3, §2

Proteus vulgaris [4] = test: disc-plate bioassay using Proteus vulgaris; conditions: for zone of inhibition at 100 µg/mL: read-out: disc zone size
[5] = test system: Aerobacter cloacae MB-2646; test: enzymatic inactivation by cell-free extract; conditions: for Antibiotic Activity Remaining: start 250 μg/ml
Procedure: The ability of Antibiotic 810A and cephalosporin C to withstand the degradative effect of the culture Aerobacter cloacae (MB-2646) was also determined. This culture is gram-negative and resistant to cephalosporin C. […] The source of the inactivating substance is a 1:160 dilution of the filtrate of an 18 hour 37° C. shake culture of Aerobacter cloacae MB-2646 in nutrient broth containing 0.2% yeast extract. Table XIV, infra, indicates the percent inactivation of Antibiotic 810A, cephalothin, cephaloridine and cephalosporin C on Vibrio percolans (MB-1272) via this method:
Using the same assay procedure as described above, Table XV, infra, indicates the relative resistance of Antibiotic 810A to enzymatic inactivation by Aerobacter cloacae. The starting concentration is 250 μg./ml. Results are expressed in μg./ml.

Proteus morganii 3202 = test: mouse protection test; format: in vivo, mice; design: dose or concentration left out as unconfirmed; conditions: × 2 doses, subcutaneous
Procedure: Methods: The method employed in this characterization is as follows: Female white Swiss mice, average weight 20-23 grams, were infected intraperitoneally with 3-20 times the number of organisms calculated to be lethal for 50% of the infected control animals (3-20 LD50 doses). At the time of infection and again 6 hours later, therapy was given by the designated route. Controls of the virulence of the culture and the toxicity of the antibiotic for uninfected mice were included in the tests. Seven days after infection the test was considered complete and the amount of the antibiotic (I) that would be required to protect 50% of the infected and treated animals was calculated by the method of Knudsen and Curtis; J. Amer. Stat. Assoc. Vol. 42: page 282 (1947).
The method employed in these studies is the same as described above with regard to the in vivo characterization of 810A. The results of these tests are described below in Table XIb:
Administration was by subcutaneous injection. At the completion of the test period, usually seven days after administration, the amount of product required to protect 50% of the mice (ED50) from this otherwise fatal injection was calculated: […]

Proteus morganii 356 [6] = test: mouse protection test, clinical isolate; format: in vivo, mice; conditions: subcutaneous × 2 doses
Description: In addition to the aforementioned in vivo trials of the product, a clinical isolate of Proteus morganii 356 which is resistant to cephalosporins and capable of degrading cephalosporin C, was employed in a mouse protection test performed in the same manner as reported above.

Escherichia coli 236 = test: bacterial inactivation; conditions: 4 hours; assayed on B. subtilis (MB-964)
Procedure: (§4) These cultures are: Escherichia coli 236, Proteus morganii 251, Proteus morganii 356 and Proteus mirabilis 241. […] In conducting the assay, individual mixtures of the organisms and one of the antibiotics were sampled after four hours incubation and assayed for residual antibiotic activity. The procedure is the same assay method as described above against Alcaligenes faecalis MB-9 and A. viscosus MB-12.

Proteus mirabilis 241 = test: bacterial inactivation; conditions: 4 hours; assayed on B. subtilis (MB-964)
Procedure: as §4

Proteus morganii 251 = test: bacterial inactivation; conditions: 4 hours; assayed on B. subtilis (MB-964)
Procedure: as §4

Proteus morganii 356 [7] = test: bacterial inactivation; conditions: 4 hours; assayed on B. subtilis (MB-964)
Procedure: as §4

[8] = test system: Alcaligenes faecalis MB-9; test: bacterial inactivation by washed bacterial cells; conditions: start 4 mg/ml
[9] = test system: Alcaligenes viscosus MB-12; test: bacterial inactivation by washed bacterial cells; conditions: 4 hour; assayed on B. subtilis (MB-964); start 4 mg/ml
Proteus vulgaris [10] = test: disc-plate agar diffusion, antibacterial spectrum; format: cell-based; conditions: 166 μg/ml, 37 °C, 7 mm = no zone, read-out: Inhibition Zone Diameter
Pseudomonas aeruginosa = test: disc-plate agar diffusion, antibacterial spectrum; format: cell-based; conditions: 166 μg/ml, 25 °C, 7 mm = no zone, read-out: Inhibition Zone Diameter
Serratia marcescens = test: disc-plate agar diffusion, antibacterial spectrum; format: cell-based; conditions: 166 μg/ml, 25 °C, 7 mm = no zone, read-out: Inhibition Zone Diameter
Staphylococcus aureus = test: disc-plate agar diffusion, antibacterial spectrum; format: cell-based; conditions: 166 μg/ml, 25 °C, 7 mm = no zone, read-out: Inhibition Zone Diameter
Sarcina lutea = test: disc-plate agar diffusion, antibacterial spectrum; format: cell-based; conditions: Micrococcus luteus; 166 μg/ml; 25 °C; 7 mm = no zone; read-out: Inhibition Zone Diameter
[11] = test system: Staphylococcus aureus (Streptomycin-Streptothricin-resistant); test: disc-plate agar diffusion, antibacterial spectrum; format: cell-based; conditions: read-out: Inhibition Zone Diameter
Streptococcus faecalis = test: disc-plate agar diffusion, antibacterial spectrum; format: cell-based; conditions: Enterococcus faecalis; 166 μg/ml; 37 °C; 7 mm = no zone; read-out: Inhibition Zone Diameter
Alcaligenes faecalis = test: disc-plate agar diffusion, antibacterial spectrum; format: cell-based; conditions: 166 μg/ml, 37 °C, 7 mm = no zone, read-out: Inhibition Zone Diameter
Brucella bronchiseptica = test: microbe, parasite or virus in culture; format: cell-based; conditions: Bordetella bronchiseptica, read-out: Inhibition Zone Diameter
Vibrio percolans = test: disc-plate agar diffusion, antibacterial spectrum; format: cell-based; conditions: Comamonas terrigena; 166 μg/ml; 27 °C; 7 mm = no zone; read-out: Inhibition Zone Diameter
[12] = test system: Escherichia coli, Streptothricin-resistant; test: cross-resistance, disc-plate agar diffusion; format: cell-based; conditions: read-out: Inhibition Zone Diameter
[13] = test system: Escherichia coli, Chloramphenicol-resistant; test: cross-resistance, disc-plate agar diffusion; format: cell-based; conditions: read-out: Inhibition Zone Diameter
[14] = test system: Escherichia coli, Oxytetracycline-resistant; test: cross-resistance, disc-plate agar diffusion; format: cell-based; conditions: read-out: Inhibition Zone Diameter
[15] = test system: Escherichia coli, Neomycin-resistant; test: cross-resistance, disc-plate agar diffusion; format: cell-based; conditions: read-out: Inhibition Zone Diameter
[16] = test system: Escherichia coli, Viomycin-resistant; test: cross-resistance, disc-plate agar diffusion; format: cell-based; conditions: read-out: Inhibition Zone Diameter
Escherichia coli W-MB-60 [17] = test: special effects spectrum, disc-plate agar diffusion; format: cell-based; conditions: WMB60, 166 μg/ml, read-out: Inhibition Zone Diameter
[18] = 2 hour, assayed on B. subtilis 964
[19] = 2 hour, assayed on V. percolans 1272
[20] = 2 hour, assayed on V. percolans (MB-1272)

Compound: CO[C@@]1(NC(=O)CCC[C@@H](N)C(=O)O)C(=O)N2C(C(=O)O)=C(COC(N)=O)CS[C@@H]21
- IC (25 mm zone) (Vibrio percolans MB-1272; MB1272, read-out: concentration giving a 25 mm zone, Vibrio percolans): 8 µg/mL

Compound: CO[C@@]1(NC(=O)CCC[C@@H](N)C(=O)O)C(=O)N2C(C(=O)O)=C(CSc3nc(C)cs3)CS[C@@H]21 [7β-(D-5-amino-5-carboxyvaleramido)-3-(4-methylthiazol-2-ylmercaptomethyl)-7-methoxy-3-cephem-4-carboxylic acid]
- zone of inhibition at 100 µg/mL (Escherichia coli W-MB-60 [1]): 14 mm
- zone of inhibition at 100 µg/mL [2]: 13.5 mm
- zone of inhibition at 100 µg/mL (Vibrio percolans MB-1272): 20 mm

Compound: CO[C@@]1(NC(=O)CCC[C@@H](N)C(=O)O)C(=O)N2C(C(=O)O)=C(CN)CS[C@@H]21 [7β-(D-5-amino-5-carboxyvaleramido)-3-(aminomethyl)-7-methoxy-3-cephem-4-carboxylic acid]
- zone of inhibition at 100 µg/mL [2]: 21 mm
- zone of inhibition at 100 µg/mL [3]: 21 mm
- zone of inhibition at 5 µg/mL (Vibrio percolans MB-1272; MB1272, read-out: disc zone size, 5γ/ml): 20 mm

Compound: COC(=Cc1ccc(O)cc1)C(=O)OCC1=C(C(=O)O)N2C(=O)[C@](NC(=O)CCC[C@@H](N)C(=O)O)(OC)[C@H]2SC1 [7β-(D-5-amino-5-carboxyvaleramido)-3-(α-methoxy-p-hydroxycinnamoyloxymethyl)-7-methoxy-3-cephem-4-carboxylic acid]
- IC (25 mm zone) (Proteus vulgaris [4]; read-out: concentration giving a 25 mm zone (bioassay potency)): 167 µg/mL

Compound: O=C(Cc1cccs1)N[C@@H]1C(=O)N2C(C(=O)[O-])=C(C[n+]3ccccc3)CS[C@H]12 [Cephaloridine]
- Antibiotic Activity Remaining [5, 18]: < 10 µg/mL
- Antibiotic Activity Remaining [5, 19]: < 10 µg/mL
- Percent Inactivation After Incubation With Cell-Free Extract ([5]; bacterial culture filtrate, 2 h): 96%
- protection (Proteus morganii 3202): failed to protect
- ED50 (average of Two Trials) (Proteus morganii 356 [6]): 9,270 μg

Compound: CC(=O)OCC1=C(C(=O)O)N2C(=O)[C@@H](NC(=O)CCC[C@@H](N)C(=O)O)[C@H]2SC1 [Cephalosporin C, reference compound]
- Percent Inactivation After Incubation With Cell-Free Extract [5, 20]: 96%
- percent inactivation (Escherichia coli 236): > 99%
- percent inactivation (Proteus mirabilis 241): 72%
- percent inactivation (Proteus morganii 251): > 99%
- percent inactivation (Proteus morganii 356 [7]): > 99%
- Percent Inactivation After Incubation With Washed Bacterial Cells ([8]; 3 hour, assayed on B. subtilis (MB-964)): > 99%
- Percent Inactivation After Incubation With Washed Bacterial Cells ([8]; 3 hour, assayed on V. percolans (MB-1272)): > 99%
- Percent Inactivation After Incubation With Washed Bacterial Cells ([8]; 4 hour, assayed on B. subtilis (MB-964)): > 99%
- Percent Inactivation After Incubation With Washed Bacterial Cells [9]: > 99%

Compound: CC(=O)OCC1=C(C(=O)O)N2C(=O)[C@@H](NC(=O)Cc3cccs3)[C@H]2SC1 [Cephalothin]
- Percent Inactivation After Incubation With Cell-Free Extract [5, 20]: 66%
- Antibiotic Activity Remaining [5, 18]: 140 µg/mL
- Antibiotic Activity Remaining [5, 19]: 85 µg/mL
- protection (Proteus morganii 3202): failed to protect
- ED50 (average of Two Trials) (Proteus morganii 356 [6]): > 20,000 μg

Compound: CO[C@@]1(NC(=O)CCC[C@@H](N)C(=O)O)C(=O)N2C(C(=O)O)=C(COC(N)=O)CS[C@@H]21 [Disodium Salt of 842A]
- zone of inhibition at 100 µg/mL (Escherichia coli W-MB-60 [1]): 18 mm
- zone of inhibition at 100 µg/mL [2]: 22 mm
- zone of inhibition at 100 µg/mL [3]: 27 mm
- zone of inhibition at 100 µg/mL (Vibrio percolans MB-1272): 18 mm
- zone of inhibition at 100 µg/mL (Proteus vulgaris [4]): 27 mm

Compound: CO[C@@]1(NC(=O)CCC[C@@H](N)C(=O)O)C(=O)N2C(C(=O)O)=C(COC(N)=O)CS[C@@H]21 [Free Acid]
- zone of inhibition at 166 µg/mL (Proteus vulgaris [10]): 22 mm
- zone of inhibition at 166 µg/mL (Pseudomonas aeruginosa): 7 mm
- zone of inhibition at 166 µg/mL (Serratia marcescens): 7 mm
- zone of inhibition at 166 µg/mL (Staphylococcus aureus): 7 mm
- zone of inhibition at 166 µg/mL (Sarcina lutea): 10 mm
- zone of inhibition at 166 µg/mL [11]: 11 mm
- zone of inhibition at 166 µg/mL (Streptococcus faecalis): 7 mm
- zone of inhibition at 166 µg/mL (Alcaligenes faecalis): 27 mm
- zone of inhibition at 166 µg/mL (Brucella bronchiseptica): 24 mm
- zone of inhibition at 166 µg/mL (Vibrio percolans): 30 mm
- zone of inhibition at 166 µg/mL [12]: 14 mm
- zone of inhibition at 166 µg/mL [13]: 17 mm
- zone of inhibition at 166 µg/mL [14]: 23 mm
- zone of inhibition at 166 µg/mL [15]: 17 mm
- zone of inhibition at 166 µg/mL [16]: 16 mm
- zone of inhibition at 166 µg/mL (Escherichia coli W-MB-60 [17]; 0.1 M phosphate buffer pH 7, 25 °C): 29 mm
- zone of inhibition at 166 µg/mL (Escherichia coli W-MB-60 [17]; 0.1 M phosphate buffer pH 9, 25 °C): 22 mm
- zone of inhibition at 166 µg/mL (Escherichia coli W-MB-60 [17]; human blood plasma 20%, 25 °C): 22 mm

Compound: CO[C@@]1(NC(=O)CCC[C@@H](N)C(=O)O)C(=O)N2C(C(=O)O)=C(CSC(=N)N)CS[C@@H]21 [S-[7β-(D-5-amino-5-carboxyvaleramido)-4-carboxy-7-methoxy-3-cephem-3-yl-methyl]thiouronium]
- zone of inhibition at 100 µg/mL [2]: 22 mm
- zone of inhibition at 100 µg/mL [3]: 23 mm
- zone of inhibition at 100 µg/mL (Vibrio percolans MB-1272): 27 mm
- zone of inhibition at 100 µg/mL (Proteus vulgaris [4]): 17 mm
